Laboratory results taken from patent US20070060534A1, “Anthracycline analogs” (Threshold Pharmaceuticals, Inc., priority 2005, published 2007).
“And” between values parts separate entries of the source, which are not always exact repeats. Equal values may be shown once. Read-outs that look alike come from different tables or passages of the source.

System: H460 cells
Assay: Cytotoxicity: anti-proliferation activity on H460 cells, multi-well Alamar Blue based assay
Format: cell-based
Description: Cell growth in the presence and absence of the test compound was compared following a multi-well Alamar Blue based assay, and measured by a fluorescence plate reader at 550 nm excitation and 590 nm emission (see Biosource International Inc., Tech Application Notes, Use of Alamar Blue in the measurement of Cell Viability and Toxicity, Determining IC50). H460 cells (ATCC HTB-177 (NCl—H40), 4,000 cells/well/200 μl) were seeded in a 96 well plate in RPMI medium (Invitrogen Corporation, Carlsbad, Calif.). After 24 hours, these plates were divided into 3 groups—Control group, 2 h treatment group and 3 day treatment group. A test compound was added in a range of concentration to each plate in the treatment groups (2 h and 3 day). In the 2 h treatment group, after 2 h, the H460 cells were rinsed to remove the test compound, incubated for 3 days, and stained with AlamarBlue. The cells in the 3-day treatment group were incubated along with the test compound for 3 days, followed by staining with AlamarBlue. In the Control group, AlamarBlue was added to the plate at (i) day 0 and (ii) day 3 and the fluorescence emission measured to establish the control reading. In all the groups, the capacity of the cells to proliferate was measured 6 hours after addition of AlamarBlue by a fluorescence plate reader at 550 nm excitation and 590 nm emission.

[1] = read-out: GI90 (the source's name)
[2] = Homo sapiens, NCI-H460, 2 h, read-out: GI90
[3] = Homo sapiens, NCI-H460, 72 h, read-out: GI50 (concentration required to inhibit cellular proliferation by 50%)
[4] = Homo sapiens, NCI-H460, 72 h, read-out: GI90
[5] = Homo sapiens, NCI-H460, read-out: GI50 (concentration required to inhibit cellular proliferation by 50%)
[6] = Homo sapiens, NCI-H460, 72 h, H460 cells, 3 day incubation with compound, AlamarBlue, read-out: GI50 (concentration required to inhibit cellular proliferation by 50%)
[7] = Homo sapiens, NCI-H460, 72 h, H460 cells, 3 day incubation with compound, AlamarBlue, read-out: GI90 (the source's name)
[8] = Homo sapiens, NCI-H460, H460 cells, 2 h treatment, rinsed, then incubated for 3 days, AlamarBlue, read-out: GI50 (concentration required to inhibit cellular proliferation by 50%)
[9] = Homo sapiens, NCI-H460, H460 cells, 2 h treatment, rinsed, then incubated for 3 days, AlamarBlue, read-out: GI90 (the source's name)
[10] = read-out: GI50 (concentration required to inhibit cellular proliferation by 50%)

| Compound | IC90 [2] [nM] | GI50 [3] [nM] | IC90 [4] [nM] | GI50 [5] [nM] | also measured |
| --- | --- | --- | --- | --- | --- |
| COc1cccc2c1C(=O)c1c(O)c3c(c(O)c1C2=O)CC(O)(C(C)=O)CC3OC1CC(N2CCN(C(=O)OCC3c4ccccc4-c4ccccc43)CC2)C(O)C(C)O1 (centres unmarked) [Compound 44] |  |  |  |  | IC90 [1]: 501 nM |
| COc1cccc2c1C(=O)c1c(O)c3c(c(O)c1C2=O)C[C@@](O)(C(C)=O)C[C@@H]3O[C@H]1CC2C(OC3CN(C(=O)OCc4cnc([N+](=O)[O-])n4C)CCN32)[C@H](C)O1 (some centres unmarked) [Compound 28] | 0.1 | 0.4 | 1.26 | 0.03 |  |
| COc1cccc2c1C(=O)c1c(O)c3c(c(O)c1C2=O)C[C@]1(O)C[C@@H]3O[C@H]2CC([C@H](O)[C@H](C)O2)N2CCOCC2OCC1=O (some centres unmarked) [Compound 58] |  |  |  |  | GI50 [6]: 0.14 nM; IC90 [7]: 0.6 nM; GI50 [8]: 0.3 nM; IC90 [9]: 1 nM |
| COc1cccc2c1C(=O)c1c(O)c3c(c(O)c1C2=O)C[C@@](O)(C(C)=O)C[C@@H]3O[C@H]1CC(N2CCOCC2C#N)C(OC(=O)OCC(C)C)[C@H](C)O1 (some centres unmarked) [Compound 57] | 316 | 1.58 | 10 | 125 |  |
| COc1cccc2c1C(=O)c1c(O)c3c(c(O)c1C2=O)C[C@@](O)(C(C)=O)C[C@@H]3O[C@H]1CC(N2CCOCC2O)C(O)[C@H](C)O1 (some centres unmarked) [Compound 59] | 1000 | 50 | 200 | 200 |  |
| COc1cccc2c1C(=O)c1c(O)c3c(c(O)c1C2=O)C[C@@](O)(C(O)CO)C[C@@H]3O[C@H]1CC(N2CCN(C(=O)OC(C)(C)C)CC2C#N)[C@H](O)[C@H](C)O1 (some centres unmarked) [Compound 13] | 50.1 | 4 | 20 | 10 |  |
| COc1cccc2c1C(=O)c1c(O)c3c(c(O)c1C2=O)C[C@@](O)(C(C)=O)C[C@@H]3O[C@H]1CC(NC(C#N)COCCOS(=O)(=O)c2ccc(C)cc2)C(O)[C@H](C)O1 (some centres unmarked) [Compound 52] |  |  |  | 0.3 |  |
| COc1cccc2c1C(=O)c1c(O)c3c(c(O)c1C2=O)C[C@@](O)(C(C)=O)C[C@@H]3O[C@H]1CC(N2CCN(C(=O)C(F)(F)F)CC2)C(O)[C@H](C)O1 (some centres unmarked) [Compound 45] |  |  |  |  | IC90 [1]: 1000 nM and 630 nM |
| COc1cccc2c1C(=O)c1c(O)c3c(c(O)c1C2=O)CC(O)(C(C)=O)CC3OC1CC(N2CCN(C(C)=O)CC2)C(O)C(C)O1 (centres unmarked) [Compound 46] |  |  |  |  | IC90 [1]: 158.50 nM and 100.00 nM |
| COc1cccc2c1C(=O)c1c(O)c3c(c(O)c1C2=O)C[C@@](O)(C(C)=O)C[C@@H]3O[C@H]1CC(N2CCN(C(=O)OCc3cnc([N+](=O)[O-])n3C)CC2)C(O)[C@H](C)O1 (some centres unmarked) [Compound 33] |  |  |  |  | GI50 [10]: 20 nM and 10 nM; IC90 [1]: 79 nM and 50 nM |
| COCCOC(=O)N1CCN2C(C1)OC1C2C[C@H](O[C@H]2C[C@](O)(C(=O)CO)Cc3c(O)c4c(c(O)c32)C(=O)c2c(OC)cccc2C4=O)O[C@@H]1C (some centres unmarked) [Compound 50] |  |  |  |  | GI50 [6]: 0.16 nM; IC90 [7]: 0.32 nM; GI50 [8]: 0.13 nM; IC90 [9]: 0.4 nM |
| COc1cccc2c1C(=O)c1c(O)c3c(c(O)c1C2=O)C[C@@](O)(C(O)CO)C[C@@H]3O[C@H]1CC(N2CCN(C(=O)OC(C)(C)C)CC2)[C@H](O)[C@H](C)O1 (some centres unmarked) [Compound 49] | 158 | 20 | 100 | 63.1 |  |
| COc1cccc2c1C(=O)c1c(O)c3c(c(O)c1C2=O)C[C@@](O)(C(C)=O)C[C@@H]3O[C@@H]1CC(N2CCN(C(=O)OCc3ccc([N+](=O)[O-])o3)CC2C#N)C(O)[C@H](C)O1 (some centres unmarked) [Compound 5] |  |  |  |  | GI50 [6]: 1 nM; IC90 [7]: 4 nM; GI50 [8]: 3.2 nM; IC90 [9]: 10 nM |
| COc1cccc2c1C(=O)c1c(O)c3c(c(O)c1C2=O)C[C@@](O)(C(C)=O)C[C@@H]3O[C@H]1CC(N2CCN(C(=O)OCC(C)C)CC2)C(O)[C@H](C)O1 (some centres unmarked) [Compound 47] | 398 | 20 | 100 | 126 |  |
| COCCOC(=O)N1CCN(C2C[C@H](O[C@H]3C[C@](O)(C(C)=O)Cc4c(O)c5c(c(O)c43)C(=O)c3c(OC)cccc3C5=O)O[C@H](C)C2O)C(C#N)C1 (some centres unmarked) [Compound 14] | 0.4 | 0.2 | 0.63 | 0.2 |  |
| COc1cccc2c1C(=O)c1c(O)c3c(c(O)c1C2=O)C[C@@](O)(C(C)=O)C[C@@H]3O[C@H]1CC(NC(C#N)COCCCl)C(O)[C@H](C)O1 (some centres unmarked) [Compound 53] |  | 2.5 |  | 15.8 |  |
| COc1cccc2c1C(=O)c1c(O)c3c(c(O)c1C2=O)C[C@@](O)(C(C)=O)C[C@@H]3O[C@H]1CC(N2CCN(C(=O)CC(C)(C)C)CC2)C(O)[C@H](C)O1 (some centres unmarked) [Compound 48] | 398 | 63.1 | 200 | 141 |  |
| COc1cccc2c1C(=O)c1c(O)c3c(c(O)c1C2=O)C[C@@](O)(C(C)=O)C[C@@H]3O[C@H]1CC(N2CCN(C(=O)OCc3cnc([N+](=O)[O-])n3C)CC2C#N)C(O)[C@H](C)O1 (some centres unmarked) [Compound 3] |  |  |  |  | GI50 [10]: 2.5 nM and 1.3 nM; IC90 [1]: 7.90 nM and 4.00 nM |
| COc1cccc2c1C(=O)c1c(O)c3c(c(O)c1C2=O)C[C@@](O)(C(C)=O)C[C@@H]3O[C@H]1CC(NC(COCCOS(=O)(=O)c2ccc(C)cc2)OC)C(O)[C@H](C)O1 (some centres unmarked) [Compound 51] |  |  |  | 2.5 |  |
| COc1cccc2c1C(=O)c1c(O)c3c(c(O)c1C2=O)C[C@@](O)(C(=O)COC(=O)OCc1cnc([N+](=O)[O-])n1C)C[C@@H]3O[C@H]1CC(N2CCOCC2C#N)[C@H](O)[C@H](C)O1 (some centres unmarked) [Compound 60] | 2.5 | 0.1 | 0.2 | 0.79 |  |
